# Legend:
# BRPF1B = molecular target: T1, BRPF1B (Homo sapiens, UniProt P55201); assay: Dissociation constant KD BRPF1B; assay type: binding
# T1 construct: dissociation constants KD for two bromodomains (BRD4(1) and BRPF1B)
# T1 sequence (P55201 628-732 limits assumed): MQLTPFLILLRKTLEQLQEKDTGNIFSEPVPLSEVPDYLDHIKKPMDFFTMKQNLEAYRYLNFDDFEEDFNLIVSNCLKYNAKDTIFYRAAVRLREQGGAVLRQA
# BRD4(1) [1] = molecular target: T2, BRD4(1) (Homo sapiens, UniProt O60885); assay: Isothermal titration calorimetry, dissociation constant KD BRD4(1); assay type: binding
# T2 construct: BRD4-BD1 was expressed and purified as described previously; made in house
# Method: BRD4-BD1 was expressed and purified as described previously (Filippakopoulos et al, (2012), Cell 149(1): […]) with the exception of the final buffer for crystallization and ITC analysis (20 mM Hepes/NaOH pH 7.5, 150 mM NaCl). Crystals were grown in the presence of 3.5 M Na-Formate (pH 7.5) at a protein concentration of 10 mg/ml and a ligand concentration of 2 mM added directly to the protein prior to crystallization from a 100 mM stock solution in DMSO. Data were collected at 100K using either a Rigaku HF-007 rotating anode X-ray generator equipped with VariMaxHF optics and a Saturn944 CCD detector or a mar345 image plate respectively at λ=1.54179 Å or at the PXI beamline at the Swiss Light Source at λ=1.000 Å with a Pilatus detector. Data processing and reduction was done with iMOSFLM (Leslie AGW PH (2007), Evolving Methods for Macromolecular Crystallography 245, 41.51), POINTLESS, and SCALA (Kabsch W (2010) Xds. Acta crystallographica. Section D, Biological crystallography 66(Pt 2):125-132; Bruker (2008) SADABS, SAINT and XPREP (Bruker AXS Inc., Madison, Wis., USA); Collaborative Computational Project N (1994) The CCP4 suite: programs for protein crystallography, Acta crystallographica, Section D, Biological crystallography 50(Pt 5):760-763), or with XDS, XSCALE, XDSCONV (Evans P (2006), Scaling and assessment of data quality, Acta crystallographica, Section D, Biological crystallography 62(Pt 1):72-82), and XPREP (Evans P R (2011), An introduction to data reduction: space-group determination, scaling and intensity statistics, Acta crystallographica, Section D, Biological crystallography 67(Pt 4):282-292).
# Data were obtained in discrete titration experiments with an injection volume of 12 μl per injection. Subsequently, the heats per injection were calculated as integrals and after normalization against the molar concentrations plotted against the molar ratio as implemented in Microcal Origin. Finally, data were fitted according to a single set of sites binding model with
# The dissociation constant Kd, is commonly used to describe the affinity between a ligand L and a protein, i.e. how tightly a ligand binds to a particular protein. The dissociation constant has molar units which correspond to the concentration of ligand at which the binding site on a particular protein is half occupied, i.e. the concentration of the ligand at which the concentration of protein with ligand bound equals the concentration of protein with no ligand bound. The smaller the dissociation constant, the higher the affinity between ligand and protein.
# BRD4(1) [2] = molecular target: T2, BRD4(1); assay: BROMOscan Kd determination BRD4(1); assay type: binding
# Method: (§1) Bromodomain profiling was carried out on the basis of BROMOscan™. This platform accounted for the indirect determination of the dissociation constants between 19 bromodomains and the compound of formula (13), by binding competition against a reference immobilized ligand. Compounds that bind the bromodomain prevent its binding to the immobilized ligand thus reducing the amount of protein captured. […] Hits are identified by measuring the amount of bromodomain captured in test versus control samples. Bromodomain assays for Kd determination: T7 phage strains displaying bromodomains were grown in parallel in 24-well blocks in an E. coli host derived from the BL21 strain. E. coli were grown to log-phase and infected with T7 phage from a frozen stock (multiplicity of infection=0.4) and incubated with shaking at 32° C. until lysis (90-150 minutes). The lysates were centrifuged (5,000×g) and filtered (0.2 μm) to remove cell debris. […] The liganded beads were blocked with excess biotin and washed with blocking buffer (SeaBlock (Pierce), 1% BSA, 0.05% Tween 20, 1 mM DTT) to remove unbound ligand and to reduce non-specific phage binding. […] Test compounds were prepared as 1000× stocks in 100% DMSO. Kds were determined using an 11-point 3-fold compound dilution series with one DMSO control point. All compounds for Kd measurements are distributed by acoustic transfer (non-contact dispensing) in 100% DMSO. The compounds were then diluted directly into the assays such that the final concentration of DMSO was 0.09%. All reactions performed in polypropylene 384-well plates. Each was a final volume of 0.02 ml. […] The bromodomain concentration in the eluates was measured by qPCR. […] All compounds for Kd measurements are distributed by acoustic transfer (non-contact dispensing) in 100% DMSO. The compounds were then diluted directly into the assays such that the final concentration of DMSO was 0.09%. Most Kds were determined using a compound top concentration=10,000 nM. If the initial Kd determined was <0.169 nM (the lowest concentration tested), the measurement was repeated with a serial dilution starting at a lower top concentration. Binding Constants (Kds): Binding constants (Kds) were calculated with a standard dose-response curve using the Hill equation: The Hill Slope was set to −1. Curves were fitted using a non-linear least square fit with the Levenberg-Marquardt algorithm.
# BRD7 = molecular target: T3, BRD7 (Homo sapiens, UniProt Q9NPI1); assay: BROMOscan Kd determination BRD7; assay type: binding
# T3 construct: T7 phage strains displaying bromodomains were grown; host or cells: T7 phage in E. coli derived from BL21
# T3 sequence (Q9NPI1 131-235 limits assumed): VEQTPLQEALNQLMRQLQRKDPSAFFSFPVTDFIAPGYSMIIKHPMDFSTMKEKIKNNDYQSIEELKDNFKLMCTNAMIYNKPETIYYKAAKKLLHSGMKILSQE
# Method: as §1
# CECR2 = molecular target: T4, CECR2 (Homo sapiens, UniProt Q9BXF3); assay: BROMOscan Kd determination CECR2; assay type: binding
# T4 construct: T7 phage strains displaying bromodomains were grown; host or cells: T7 phage in E. coli derived from BL21
# Method: as §1
# HL-60 cells = assay: GI50 in a culture of HL-60 cells; assay type: cell-based; settings: concentration required to reduce the population of a culture of HL-60 cells by 50%
# EP300 = molecular target: T5, EP300 (Homo sapiens, UniProt Q09472); assay: BROMOscan Kd determination EP300; assay type: binding
# T5 construct: T7 phage strains displaying bromodomains were grown; host or cells: T7 phage in E. coli derived from BL21
# T5 sequence (Q09472 1049-1156 limits assumed): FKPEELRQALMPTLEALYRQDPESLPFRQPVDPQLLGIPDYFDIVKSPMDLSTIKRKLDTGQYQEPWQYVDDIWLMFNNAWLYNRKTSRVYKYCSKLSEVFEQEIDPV
# Method: as §1
# BRPF1 = molecular target: T6, BRPF1 (Homo sapiens, UniProt P55201); assay: BROMOscan Kd determination BRPF1; assay type: binding
# T6 construct: T7 phage strains displaying bromodomains were grown; host or cells: T7 phage in E. coli derived from BL21
# T6 sequence (P55201 628-732 limits assumed): T1 sequence (P55201 628-732 limits assumed)
# Method: as §1
# BRD9 = molecular target: T7, BRD9 (Homo sapiens, UniProt Q9H8M2); assay: BROMOscan Kd determination BRD9; assay type: binding
# T7 construct: T7 phage strains displaying bromodomains were grown; host or cells: T7 phage in E. coli derived from BL21
# T7 sequence (Q9H8M2 136-240 limits assumed): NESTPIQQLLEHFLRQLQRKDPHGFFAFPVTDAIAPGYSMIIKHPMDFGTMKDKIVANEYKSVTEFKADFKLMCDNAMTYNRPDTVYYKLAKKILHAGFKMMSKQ
# Method: as §1
# P. falciparum cultures = assay: Plasmodium falciparum inhibitor treatment for 72 hours, parasitemia by flow cytometry; assay type: cell-based; settings: 100 μm of compound, vs DMSO control, early ring, mid trophozoite and schizont stages
# Method: Plasmodium falciparum Inhibitor Treatment for 72 Hours (One Replication Cycle) P. falciparum cultures were treated for 72 hours with 100 μm of compounds (19) to (22), (24) and (25) or DMSO as control. The cultures were stained for DNA content with fluorescent dye Hoechst 33342 (20 μm) and for RNA content with thiazole orange (1 μm). The double negative population represented uninfected erythrocytes (devoid of DNA and low in RNA content) whereas the P. falciparum infected erythrocytes were gated as early ring, mid trophozoite and late schizont stages based on their DNA and RNA content.
# T4 sequence (Q9BXF3 434-538 limits assumed): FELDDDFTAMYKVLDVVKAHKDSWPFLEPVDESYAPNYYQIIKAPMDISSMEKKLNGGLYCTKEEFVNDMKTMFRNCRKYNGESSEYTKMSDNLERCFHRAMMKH
Compound,Kd (BRPF1B) [nM],Kd (BRD4(1) [1]) [nM],Kd (BRD4(1) [2]) [nM],Kd (BRD7) [nM],Kd (CECR2) [nM],Kd (EP300) [nM],Kd (BRPF1) [nM],Kd (BRD9) [nM],other results
CNC(=O)c1[nH]c(C)c2c1CCCCC2=O [1″],5080,6410,,,,,,,
COc1ccc(S(=O)(=O)N2CCN(C)CC2)cc1NC(=O)c1[nH]c(C)c2c1CCCCC2=O [Compound 14],,260,300,160,240,1800,320,68,GI50HL60 (HL-60 cells): 2080 nM
COc1ccc(S(=O)(=O)N2CCCCC2)cc1NC(=O)c1[nH]c(C)c2c1CCCCC2=O [Compound 15],,47.3,82,440,580,3500,1800,300,
COc1ccc(S(=O)(=O)N2CC3(COC3)C2)cc1NC(=O)c1[nH]c(C)c2c1CCCCC2=O [Compound 16],,417,150,5.5,760,990,1300,4.3,
CCN(CC)S(=O)(=O)c1ccc(O)c(NC(=O)c2[nH]c(C)c3c2CCCCC3=O)c1 [Compound 18],,72.2,,,,,,,
Cc1[nH]c(-c2cccc(O)c2)c2c1C(=O)CCCC2 [Compound 19],910,,,,,,,,
Cc1[nH]c(-c2cccc(N)c2)c2c1C(=O)CCCC2 [Compound 20],567,,,,,,,,
Cc1[nH]c(-c2ccccc2)c2c1C(=O)CCCC2 [Compound 21],1990,,,,,,,,
Cc1noc(-c2[nH]c(C)c3c2CCCCC3=O)n1 [Compound 22],2310,,,,,,,,
Cc1[nH]c(-c2cccc(C(N)=O)c2)c2c1C(=O)CCCC2 [Compound 25],713,,,,,,,,

# Now from value to compound, other results behind:
Kd (BRPF1B) [nM],Kd (BRD4(1) [1]) [nM],Kd (BRD4(1) [2]) [nM],Kd (BRD7) [nM],Kd (CECR2) [nM],Kd (EP300) [nM],Kd (BRPF1) [nM],Kd (BRD9) [nM],Compound,other results
1050,4560,,,,,,,"CCOC(=O)c1[nH]c(C)c2c1CCCCC2=O [Compound 8, Ethyl 3-methyl-4-oxo-2,4,5,6,7,8-hexahydrocyclohepta[c]pyrrole-1-carboxylate]",
2050,8280,,,,,,,"CCOC(=O)c1[nH]c(C)c2c1CCC=CC2=O [Compound 9, Ethyl 3-methyl-4-oxo-2,4,7,8-tetrahydrocyclohepta[c]pyrrole-1-carboxylate]",
,144,85,250,1100,2100,420,160,"CCN(CC)S(=O)(=O)c1ccc(OC)c(NC(=O)c2[nH]c(C)c3c2CCCCC3=O)c1 [Compound 11, N-(5-(N,N-diethylsulfamoyl)-2-methoxyphenyl)-3-methyl-4-oxo-2,4,5,6,7,8-hexahydrocyclohepta[c]pyrrole-1-carboxamide]",GI50HL60 (HL-60 cells): 1360 nM
,177,170,310,8100,9000,2500,530,"COc1ccc(S(=O)(=O)N2CCCCCC2)cc1NC(=O)c1[nH]c(C)c2c1CCCCC2=O [Compound 12, N-(5-(azepan-1-ylsulfonyl)-2-methoxyphenyl)-3-methyl-4-oxo-2,4,5,6,7,8-hexahydrocyclohepta[c]pyrrole-1-carboxamide]",GI50HL60 (HL-60 cells): 570 nM
639,,,,,,,,"Cc1[nH]c(-c2ccc3cc[nH]c3c2)c2c1C(=O)CCCC2 [Compound 24, 1-(1H-indol-6-yl)-3-methyl-5,6,7,8-tetrahydrocyclohepta[c]pyrrol-4(2H)-one]",degree of parasitemia (P. falciparum cultures): particularly effective
